According to patent US10858364B2, “Imidazopyrazine inhibitors of Bruton's tyrosine kinase” (Acerta Pharma B.V., priority 2016, dated 2020):

Tests used:
anti-IgD-induced CD69 = assay: Human whole blood anti-IgD-induced CD69 assay; type: cell-based; conditions: B-cell, CD19+ B cells, 18h anti-IgD, read-out: hWB: anti-IgD-induced CD69 EC50
Procedure: WB assay: Forty-five μL blood was diluted 1:1 in RPMI+1% FBS and incubated with test compound, as described above. Blood cells were stimulated with 10 μg/mL mouse anti-human anti-IgD antibody (BD Biosciences, final concentration in assay 10 μg/mL) and incubated for 18h. Cells were stained with CD69-FITC, CD86-PE, and CD19-BV421 (BD Biosciences) for 15 minutes at room temperature, followed by RBCs lysis with FACS Lysing Solution (BD Biosciences). Cells were washed 3 times with 1 mL/well PBS+0.5% BSA, followed by flow cytometric analyses. Median fluorescence intensity values for CD69 were obtained from the CD19+B lymphocyte gate using FCSExpress analyses software (De Novo Software). EC50 values were determined by curve fitting of the experimental results using Dotmatics.
The potency of BTK inhibitors in primary B cells can be assessed in assays that evaluate functional changes after BCR-activation in the presence of inhibitor. Inhibition of specific phosphorylated epitopes on signaling proteins and more distal measures of BCR activation such as increased expression of CD86 (B7-2) and CD69 on the cell surface can be measured by flow cytometry (see Report R2013003A). In this study, effects of M27 on CD69 expression were assessed.

BTK [1] = target: T1, BTK (Homo sapiens (Human), UniProt Q06187); assay: BTK enzyme activity, IMAP assay; type: biochemical; conditions: 60 min pre-incubation, 5 μM ATP
Procedure: BTK enzyme activity is measured using the IMAP (immobilized metal ion affinity-based fluorescence polarization) assay as outlined below. BTK enzyme (His-BTK (Millipore catalog #14-552)), is diluted to 0.4 U/mL in KR buffer (10 mM Tris-HCl, 10 mM MgCl2, 0.01% Tween-20, 0.05% NaN3, 1 mM DTT, 2 mM MnCl2, pH 7.2). Serial dilutions log 10 from 2 mM to 63.2 nM of test compounds are made in 100% DMSO. The dilutions in DMSO are then diluted 50-fold in KR-buffer. Final compound concentration range in the assay ranged from 10 μM to 0.316 nM. The assay is performed as follows: 5 μL/well of test compound in KR buffer (final DMSO concentration in the assay is […]) is mixed with 5 µl/well of 0.4 U/mL BTK enzyme (final concentration in the assay is 0.1 U/mL). […] After 60 min incubation at room temperature in the dark the FP signal is read. Fluorescence at 535 nm is measured using parallel and perpendicular filters to determine differences in rotation due to binding of the phosphorylated substrate peptide to the beads. Values are calculated as percentage of the difference in readout (AmPi) of the controls with and without ATP. IC50 values are determined by curve fitting of the experimental results in Dotmatics.
Target sequence in this assay (Q06187 whole entry): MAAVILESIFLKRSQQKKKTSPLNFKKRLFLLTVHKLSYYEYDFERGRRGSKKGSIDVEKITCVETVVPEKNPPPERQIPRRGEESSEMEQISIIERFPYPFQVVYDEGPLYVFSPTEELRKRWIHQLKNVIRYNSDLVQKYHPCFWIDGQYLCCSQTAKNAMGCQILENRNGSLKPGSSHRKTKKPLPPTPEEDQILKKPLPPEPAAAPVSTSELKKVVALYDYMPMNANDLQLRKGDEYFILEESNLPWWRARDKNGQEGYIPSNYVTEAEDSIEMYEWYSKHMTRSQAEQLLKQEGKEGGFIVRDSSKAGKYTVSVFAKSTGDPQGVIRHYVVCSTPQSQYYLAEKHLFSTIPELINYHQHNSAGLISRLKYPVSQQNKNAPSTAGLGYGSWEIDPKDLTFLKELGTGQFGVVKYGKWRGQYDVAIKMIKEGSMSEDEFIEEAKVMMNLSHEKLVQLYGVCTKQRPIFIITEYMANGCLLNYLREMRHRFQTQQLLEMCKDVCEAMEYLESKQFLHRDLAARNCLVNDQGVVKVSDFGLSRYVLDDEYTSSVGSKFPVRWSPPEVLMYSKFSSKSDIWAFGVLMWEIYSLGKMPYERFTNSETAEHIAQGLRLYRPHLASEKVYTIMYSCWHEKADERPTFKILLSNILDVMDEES

TXK = TXK (Homo sapiens (Human), UniProt P42681); assay: TXK Z'-LYTE kinase assay; type: biochemical; conditions: 1 h pre-incubation, Km ATP
Procedure: (§1) BMX, TXK, EGFR, ERBB2, ERBB4, JAK3, BLK kinase activity was measured using the Z′-LYTE assay at Thermo Fisher. A 10-point dose response (final concentration in assay ranged from 10 μM to 0.5 nM in 3-fold dilution per dilution step) was generated with 1 h incubation of the test compound with the kinase prior to initiation of the kinase reaction by the addition of ATP. ATP concentration in the assay was Km ATP for the different kinases. IC50 values are determined by curve fitting of the experimental results at Thermo Fisher.

ERBB4 = ERBB4 (Homo sapiens (Human), UniProt Q15303); assay: ERBB4 Z'-LYTE kinase assay; type: biochemical; conditions: 1 h pre-incubation, Km ATP
Procedure: as §1

CYP1A2 = CYP1A2 (Homo sapiens (Human), UniProt P05177)
TEC = TEC (Homo sapiens (Human), UniProt P42680); assay: DiscoveRx Kd dose response, TEC; type: binding
Procedure: (§2) Kinase profiling was performed with M27 was done at DiscoveRx at a single dose of 1 μM on all available kinases (KINOMEscan). The overall kinase selectivity score is in Table 6. […] Kinases inhibited >65% at 1 μM for M27 were followed up with a dose response at DiscoveRx. The M27 had IC50 values <1 μM for almost the same set of kinases with exception of TXK, but with additional inhibition of BRK (PTK6).

MEK5 = MEK5 (Homo sapiens (Human), UniProt Q13163); assay: DiscoveRx Kd dose response, MEK5; type: binding
Procedure: as §2

BTK [2] = target: T1, BTK; assay: DiscoveRx Kd dose response, BTK; type: binding
Procedure: as §2
Target sequence in this assay (Q06187 whole entry): as above

CYP2C8 = CYP2C8 (Homo sapiens (Human), UniProt P10632); assay: CYP inhibition, CYP2C8; type: in vitro ADME
[3] = Clinical pharmacokinetics of acalabrutinib and its major metabolite; type: in vivo, human; conditions: human, in vivo; single oral dose of 100 mg acalabrutinib; read-out: median terminal elimination half-life (t½) (converted)
Excerpt: The compound of Formula (I) was identified as the major metabolite in plasma with a geometric mean exposure (AUC) approximately 2- to 3-fold higher than the exposure of acalabrutinib.
Acalabrutinib and the major metabolite form a covalent bond with a cysteine residue in the BTK active site, leading to inhibition of BTK enzymatic activity. Acalabrutinib binding with the cysteine residue occurs rapidly and irreversibly and provides high target occupancy at steady state.

CYP3A4 = assay: CYP induction, CYP3A4; type: in vitro ADME
CYP2B6 = CYP2B6 (Homo sapiens (Human), UniProt P20813); assay: CYP inhibition, CYP2B6; type: in vitro ADME
BTK [4] = target: T1, BTK; assay: BTK inhibition in a biochemical assay, relative to acalabrutinib
Target sequence in this assay (Q06187 whole entry, species assumed): as the sequence (Q06187 whole entry) above

ERBB2 = ERBB2 (Homo sapiens (Human), UniProt P04626); assay: ERBB2 Z'-LYTE kinase assay; type: biochemical; conditions: 1 h pre-incubation, Km ATP
Procedure: as §1

LIMK1 = LIMK1 (Homo sapiens (Human), UniProt P53667); assay: DiscoveRx Kd dose response, LIMK1; type: binding
Procedure: as §2

Sequence of TXK (P42681 whole entry): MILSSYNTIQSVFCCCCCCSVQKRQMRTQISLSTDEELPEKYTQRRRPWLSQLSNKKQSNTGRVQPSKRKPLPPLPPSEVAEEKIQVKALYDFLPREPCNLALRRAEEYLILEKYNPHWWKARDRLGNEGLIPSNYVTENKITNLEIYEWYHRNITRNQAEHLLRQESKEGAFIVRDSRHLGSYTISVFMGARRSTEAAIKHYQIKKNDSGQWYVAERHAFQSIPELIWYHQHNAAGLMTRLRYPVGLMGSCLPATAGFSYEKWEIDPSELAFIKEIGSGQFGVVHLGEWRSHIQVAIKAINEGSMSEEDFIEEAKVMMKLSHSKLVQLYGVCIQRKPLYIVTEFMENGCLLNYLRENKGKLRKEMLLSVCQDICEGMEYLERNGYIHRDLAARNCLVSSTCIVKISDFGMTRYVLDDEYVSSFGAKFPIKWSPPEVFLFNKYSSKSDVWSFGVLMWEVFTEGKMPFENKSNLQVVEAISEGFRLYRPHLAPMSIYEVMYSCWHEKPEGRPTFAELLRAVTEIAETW
Sequence of ERBB2 (P04626 23-1255): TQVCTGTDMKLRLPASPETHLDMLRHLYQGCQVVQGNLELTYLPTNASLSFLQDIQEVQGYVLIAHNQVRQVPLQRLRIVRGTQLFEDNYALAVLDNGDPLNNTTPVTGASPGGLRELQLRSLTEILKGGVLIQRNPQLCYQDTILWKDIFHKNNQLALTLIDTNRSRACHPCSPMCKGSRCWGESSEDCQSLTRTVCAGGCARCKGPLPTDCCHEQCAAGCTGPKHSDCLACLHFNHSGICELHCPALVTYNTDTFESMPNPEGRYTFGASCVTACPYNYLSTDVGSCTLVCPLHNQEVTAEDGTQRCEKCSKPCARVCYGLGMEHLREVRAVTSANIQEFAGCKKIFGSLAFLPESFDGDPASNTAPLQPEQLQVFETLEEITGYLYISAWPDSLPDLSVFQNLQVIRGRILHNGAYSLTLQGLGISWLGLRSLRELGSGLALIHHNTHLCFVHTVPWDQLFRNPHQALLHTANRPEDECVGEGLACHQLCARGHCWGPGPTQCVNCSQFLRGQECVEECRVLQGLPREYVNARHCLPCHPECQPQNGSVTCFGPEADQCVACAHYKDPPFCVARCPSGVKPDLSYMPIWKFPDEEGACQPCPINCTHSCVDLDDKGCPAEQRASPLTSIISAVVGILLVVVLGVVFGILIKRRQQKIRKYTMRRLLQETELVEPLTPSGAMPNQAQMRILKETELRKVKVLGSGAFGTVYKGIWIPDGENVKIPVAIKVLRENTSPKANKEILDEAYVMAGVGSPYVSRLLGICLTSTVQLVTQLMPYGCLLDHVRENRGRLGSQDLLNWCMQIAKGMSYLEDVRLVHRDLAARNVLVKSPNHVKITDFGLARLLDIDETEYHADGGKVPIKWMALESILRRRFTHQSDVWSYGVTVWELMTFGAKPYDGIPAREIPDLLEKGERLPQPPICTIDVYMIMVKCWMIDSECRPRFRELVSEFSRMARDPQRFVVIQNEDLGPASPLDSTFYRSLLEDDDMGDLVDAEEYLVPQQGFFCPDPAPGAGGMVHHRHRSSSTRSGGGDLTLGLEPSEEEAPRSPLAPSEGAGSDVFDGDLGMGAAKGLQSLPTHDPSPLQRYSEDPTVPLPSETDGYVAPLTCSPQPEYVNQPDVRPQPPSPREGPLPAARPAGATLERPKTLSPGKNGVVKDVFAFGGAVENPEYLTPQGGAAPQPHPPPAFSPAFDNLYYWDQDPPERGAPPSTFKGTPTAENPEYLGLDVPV
Sequence of LIMK1 (P53667 whole entry): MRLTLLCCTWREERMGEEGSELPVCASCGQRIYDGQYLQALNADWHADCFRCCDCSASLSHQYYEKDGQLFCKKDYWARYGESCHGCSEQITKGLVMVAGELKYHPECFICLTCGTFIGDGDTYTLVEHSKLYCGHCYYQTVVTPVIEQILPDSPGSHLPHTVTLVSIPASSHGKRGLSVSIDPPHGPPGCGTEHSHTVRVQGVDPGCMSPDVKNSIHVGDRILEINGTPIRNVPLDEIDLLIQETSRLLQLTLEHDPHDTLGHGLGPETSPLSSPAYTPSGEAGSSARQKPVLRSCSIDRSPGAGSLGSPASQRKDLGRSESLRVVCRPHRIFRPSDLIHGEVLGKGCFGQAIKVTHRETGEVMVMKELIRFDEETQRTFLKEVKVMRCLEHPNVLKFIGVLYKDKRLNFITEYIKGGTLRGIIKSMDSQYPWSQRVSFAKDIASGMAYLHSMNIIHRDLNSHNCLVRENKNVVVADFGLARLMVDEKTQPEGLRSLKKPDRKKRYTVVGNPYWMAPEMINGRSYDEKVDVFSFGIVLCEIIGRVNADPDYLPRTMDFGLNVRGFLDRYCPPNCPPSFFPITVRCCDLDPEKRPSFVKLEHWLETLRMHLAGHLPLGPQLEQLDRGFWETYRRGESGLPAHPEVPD
Sequence of ERBB4 (Q15303 26-1308): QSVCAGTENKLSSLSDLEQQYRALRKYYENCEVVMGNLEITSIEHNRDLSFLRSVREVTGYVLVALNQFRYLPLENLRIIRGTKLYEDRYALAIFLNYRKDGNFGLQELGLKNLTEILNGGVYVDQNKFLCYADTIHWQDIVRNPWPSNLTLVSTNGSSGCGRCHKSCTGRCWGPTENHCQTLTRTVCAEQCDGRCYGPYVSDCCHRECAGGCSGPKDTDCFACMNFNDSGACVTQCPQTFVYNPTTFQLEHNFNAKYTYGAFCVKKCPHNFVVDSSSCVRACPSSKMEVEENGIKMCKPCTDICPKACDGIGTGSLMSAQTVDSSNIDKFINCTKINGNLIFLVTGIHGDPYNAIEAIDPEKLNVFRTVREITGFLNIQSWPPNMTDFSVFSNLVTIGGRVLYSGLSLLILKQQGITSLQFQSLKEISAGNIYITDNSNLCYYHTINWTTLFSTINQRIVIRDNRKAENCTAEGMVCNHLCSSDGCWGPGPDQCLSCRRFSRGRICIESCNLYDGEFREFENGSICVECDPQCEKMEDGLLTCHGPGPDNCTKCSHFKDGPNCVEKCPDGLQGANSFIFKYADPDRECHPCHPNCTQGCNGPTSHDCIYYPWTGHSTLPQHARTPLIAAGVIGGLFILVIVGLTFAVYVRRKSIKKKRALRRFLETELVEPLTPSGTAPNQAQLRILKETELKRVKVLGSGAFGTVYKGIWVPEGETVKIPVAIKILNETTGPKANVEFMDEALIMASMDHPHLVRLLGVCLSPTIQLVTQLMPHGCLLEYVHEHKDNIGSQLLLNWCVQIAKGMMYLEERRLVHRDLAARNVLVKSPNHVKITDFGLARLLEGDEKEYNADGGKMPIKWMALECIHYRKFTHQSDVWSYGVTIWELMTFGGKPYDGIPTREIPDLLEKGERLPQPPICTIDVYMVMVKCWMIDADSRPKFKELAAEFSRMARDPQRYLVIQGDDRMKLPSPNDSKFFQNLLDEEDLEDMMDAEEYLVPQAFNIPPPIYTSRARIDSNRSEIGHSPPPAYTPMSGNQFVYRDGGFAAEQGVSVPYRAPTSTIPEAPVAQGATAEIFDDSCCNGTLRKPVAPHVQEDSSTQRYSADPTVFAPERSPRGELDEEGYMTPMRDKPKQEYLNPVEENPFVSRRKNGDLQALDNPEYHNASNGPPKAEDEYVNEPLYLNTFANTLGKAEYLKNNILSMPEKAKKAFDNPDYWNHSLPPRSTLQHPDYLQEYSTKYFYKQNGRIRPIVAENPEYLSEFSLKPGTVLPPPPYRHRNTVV
Sequence of MEK5 (Q13163 whole entry): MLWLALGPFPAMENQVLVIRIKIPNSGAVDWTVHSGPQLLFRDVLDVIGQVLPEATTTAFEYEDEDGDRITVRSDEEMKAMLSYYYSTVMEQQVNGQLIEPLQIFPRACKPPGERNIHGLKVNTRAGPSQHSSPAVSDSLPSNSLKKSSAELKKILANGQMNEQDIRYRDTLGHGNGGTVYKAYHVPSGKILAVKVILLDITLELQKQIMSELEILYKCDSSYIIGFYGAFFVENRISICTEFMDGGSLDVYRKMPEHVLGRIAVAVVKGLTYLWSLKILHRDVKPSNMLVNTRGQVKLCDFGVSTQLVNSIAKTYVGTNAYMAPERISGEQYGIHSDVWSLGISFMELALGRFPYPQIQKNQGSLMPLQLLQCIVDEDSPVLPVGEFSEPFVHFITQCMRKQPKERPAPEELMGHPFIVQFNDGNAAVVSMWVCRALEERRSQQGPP

Row | EC50 (anti-IgD-induced CD69) [nM] | IC50 (BTK [1]) [nM] | IC50 (TXK) [nM] | IC50 (ERBB4) [nM] | CYP1A2 inhibition (CYP1A2) | Kd (TEC) [nM] | Kd (MEK5) [nM] | Kd (BTK [2]) [nM] | CYP2C8 inhibition (CYP2C8) | half-life [3] [h] | CYP3A4 induction (CYP3A4) | CYP2B6 inhibition (CYP2B6) | less potent than acalabrutinib with regard to BTK inhibition (BTK [4]) | IC50 (ERBB2) [nM] | Kd (LIMK1) [nM] | Compound
1 | 137 ± 36 | 9.3 | 59 | – | – | – | – | – | – | – | – | – | – | – | – | CC#CC(=O)NCCCC(=O)c1nc(-c2ccc(C(=O)Nc3ccccn3)c(OC)c2)c2c(N)nccn12 [Formula (II), 4-(8-amino-3-(4-(but-2-ynamido)butanoyl)imidazo[1,5-a]pyrazin-1-yl)-2-methoxy-N-(pyridin-2-yl)benzamide]
2 | 64 ± 6 | 5 ± 1 | 567 ± 174 | 343 ± 23 | does not inhibit | 40 | 69 | 29 | weak inhibitor | 6.9 | weak inducer | does not inhibit | approximately 50% | 552 ± 166 | 400 | CC#CC(=O)NCCCC(=O)c1nc(-c2ccc(C(=O)Nc3ccccn3)cc2)c2c(N)nccn12 [Formula (I), 4-(8-amino-3-(4-(but-2-ynamido)butanoyl)imidazo[1,5-a]pyrazin-1-yl)-N-(pyridin-2-yl)benzamide]
